{"source": "ChEMBL document CHEMBL1201862", "about": "“PubChem BioAssay data set” (2004)", "key": {"[1]": {"test": "cytotoxicity in HEK-293T cells, dose response, cytotoxicity control for BCR NF-kB inhibitor project, luminescence, B-cell screen hits (AID 489021);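 note: cells exposed to compound for about 14 hours before viability readout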", "format": "functional, cell-based"}, "INS1": {"tested_on": "INS1", "test": "beta cell apoptosis inhibitors, cytokine rescue, dose response, luminescence, retest (AID 449756);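 note: cell death triggered by IL-1 beta plus TNF-alpha plus IFN-gamma mixture; protective hits raise ATP signal compared with cytokine alone wells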", "format": "functional, cell-based", "conditions": "Rattus norvegicus"}, "[2]": {"test": "control 3'UTR Renilla luciferase suppression, dose response, counter-screen for Shn3 inhibitor project, cell-based, Clone20-Shn3RL, cherry-picked (AID 624133)", "format": "functional"}, "[3]": {"test": "Shn3 3'UTR reporter inhibitors, dose response, cell-based, Clone20 osteoblasts, firefly luciferase, cherry-picked (AID 624132)", "format": "functional"}, "[4]": {"test": "HepG2 cell cytotoxicity, dose response, cytotoxicity control for Shn3 inhibitor project, CellTiter-Glo, cherry-picked (AID 624134)", "format": "functional, cell-based"}, "[5]": {"test": "M. tuberculosis H37Rv growth inhibitors, H37Rv strain (AID 1626)", "format": "functional"}, "[6]": {"test": "Luminescence Cell-Based Dose Retest to Confirm Inhibitors of Cancer Stem Cells. [Related pubchem assays (depositor defined):AID2717, AID2721]", "format": "functional", "conditions": "Homo sapiens"}, "[7]": {"target": "T1, Microphthalmia-associated transcription factor (Homo sapiens, UniProt O75030)", "T1 sequence (O75030 whole entry)": "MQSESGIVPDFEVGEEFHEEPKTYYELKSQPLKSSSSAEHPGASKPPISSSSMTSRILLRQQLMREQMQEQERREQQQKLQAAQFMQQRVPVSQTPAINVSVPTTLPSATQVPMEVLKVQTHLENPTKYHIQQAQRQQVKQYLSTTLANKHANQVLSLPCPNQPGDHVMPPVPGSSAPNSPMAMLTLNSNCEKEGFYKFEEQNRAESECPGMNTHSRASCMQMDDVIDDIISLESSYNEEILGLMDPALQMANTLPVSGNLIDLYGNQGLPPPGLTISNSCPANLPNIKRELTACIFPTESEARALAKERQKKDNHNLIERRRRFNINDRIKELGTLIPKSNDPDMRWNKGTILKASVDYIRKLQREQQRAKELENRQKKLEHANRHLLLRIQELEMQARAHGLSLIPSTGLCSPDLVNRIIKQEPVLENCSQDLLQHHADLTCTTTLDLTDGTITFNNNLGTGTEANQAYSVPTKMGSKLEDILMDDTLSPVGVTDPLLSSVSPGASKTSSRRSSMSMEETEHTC", "test": "TRPM1 promoter luciferase signal decrease, dose response, MITF inhibitor project, cell-based, SK-MEL-5, cherry-picked, set 3 (AID 493073)", "format": "functional"}, "[8]": {"test": "HEp-2 cell cytotoxicity, dose response, cytotoxicity control for RSV inhibitor project, HTS (AID 2410)", "format": "functional", "conditions": "human respiratory syncytial virus"}, "[9]": {"target": "Heat shock protein HSP 90-alpha (Homo sapiens, UniProt P07900)", "format": "functional, organism-based"}, "Paired box protein Pax-8": {"target": "Paired box protein Pax-8 (Homo sapiens, UniProt Q06710)", "sequence (Q06710 whole entry)": "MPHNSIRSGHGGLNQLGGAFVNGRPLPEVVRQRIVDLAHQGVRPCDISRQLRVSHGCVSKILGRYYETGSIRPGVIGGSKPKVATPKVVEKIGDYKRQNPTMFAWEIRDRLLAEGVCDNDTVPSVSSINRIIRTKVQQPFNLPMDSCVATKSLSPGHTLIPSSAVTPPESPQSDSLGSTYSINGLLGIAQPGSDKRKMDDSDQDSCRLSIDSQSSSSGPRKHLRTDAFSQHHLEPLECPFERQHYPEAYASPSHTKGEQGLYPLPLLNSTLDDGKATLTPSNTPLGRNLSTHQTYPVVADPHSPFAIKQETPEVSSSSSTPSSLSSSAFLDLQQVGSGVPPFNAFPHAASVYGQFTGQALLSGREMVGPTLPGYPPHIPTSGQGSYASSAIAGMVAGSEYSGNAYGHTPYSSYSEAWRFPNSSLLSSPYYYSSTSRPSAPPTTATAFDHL", "test": "inhibitors of PAX8-driven TPO luciferase reporter, dose response, RMG-I cells, cherry-pick (AID 687027);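 note: luciferase reporter driven by Pax8 target thyroperoxidase promoter measured by SteadyGlo luminescence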", "format": "functional, cell-based"}, "[10]": {"target": "FAD-linked sulfhydryl oxidase ALR (Homo sapiens, UniProt P55789)", "sequence (P55789 whole entry)": "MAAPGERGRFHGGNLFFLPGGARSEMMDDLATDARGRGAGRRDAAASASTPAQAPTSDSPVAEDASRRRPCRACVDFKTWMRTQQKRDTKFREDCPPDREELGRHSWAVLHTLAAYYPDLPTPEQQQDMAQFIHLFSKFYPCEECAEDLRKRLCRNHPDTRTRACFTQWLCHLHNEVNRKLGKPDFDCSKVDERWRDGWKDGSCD", "test": "inhibitors of human ALR sulfhydryl oxidase, dose response, biochemical, H2O2 detection, luminescence, cherry-pick (AID 493248)"}, "[11]": {"test": "inhibitors of clade B AD8 Env fusion, dose response, cell-based, cherry-pick (AID 652062);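 note: potency is for inhibitors of fusion seen as a drop in luminescence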", "format": "functional"}, "[12]": {"test": "ZM109 Env clade C HIV-1 fusion inhibitors, dose response, HeLa effector, CEM target cells, luciferase, cherry-pick (AID 652058)", "format": "functional, cell-based"}, "[13]": {"test": "inhibitors of HIV Env-driven cell fusion, dose response, cherry-pick (AID 652057)", "format": "functional, cell-based"}, "[14]": {"test": "intracellular Trypanosoma cruzi inhibitors in host cells – cell-based, plate reader, cherry-pick samples, set 3, dose response (AID 651818);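 note: compounds incubated with infected cells for about four days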", "format": "functional"}, "Nonstructural protein 1": {"target": "Nonstructural protein 1 (Influenza A virus, UniProt Q194T2)", "sequence (Q194T2 whole entry)": "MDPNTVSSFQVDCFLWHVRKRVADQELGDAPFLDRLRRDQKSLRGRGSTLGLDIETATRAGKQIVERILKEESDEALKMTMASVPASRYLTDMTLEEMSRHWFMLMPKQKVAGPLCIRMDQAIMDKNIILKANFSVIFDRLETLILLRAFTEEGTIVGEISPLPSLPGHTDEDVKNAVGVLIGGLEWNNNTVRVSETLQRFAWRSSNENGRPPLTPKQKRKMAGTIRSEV", "format": "functional, Influenza A virus (A/California/07/2009(H1N1))"}, "cells [15]": {"test": "cells", "format": "functional, cell-based"}, "H9c2": {"tested_on": "H9c2", "test": "cells", "format": "functional, cell-based", "conditions": "Rattus norvegicus, H9c2, Myocardium"}, "cells [16]": {"test": "cells", "format": "functional, cell-based", "remark": "listed apart in the source"}, "[17]": {"test": "cytotoxicity toward NIH3T3 fibroblasts, dose response, counter-screen, cell-based, ATP luminescence, mouse fibroblasts (AID 2010);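 note: cells exposed to compound for about 90 hours before reading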", "format": "functional"}, "[18]": {"test": "inhibitors of intracellular T. cruzi replication, confirmation, NIH3T3 host cells, beta-gal luminescence (AID 2044);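 note: luminescent beta-galactosidase reporter signal from transgenic T. cruzi replicating inside host cells; inhibitors lower the luminescence signal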", "format": "functional, cell-based"}, "[19]": {"target": "Voltage-gated inwardly rectifying potassium channel KCNH2 (Homo sapiens, UniProt Q12809)", "sequence (Q12809 whole entry)": "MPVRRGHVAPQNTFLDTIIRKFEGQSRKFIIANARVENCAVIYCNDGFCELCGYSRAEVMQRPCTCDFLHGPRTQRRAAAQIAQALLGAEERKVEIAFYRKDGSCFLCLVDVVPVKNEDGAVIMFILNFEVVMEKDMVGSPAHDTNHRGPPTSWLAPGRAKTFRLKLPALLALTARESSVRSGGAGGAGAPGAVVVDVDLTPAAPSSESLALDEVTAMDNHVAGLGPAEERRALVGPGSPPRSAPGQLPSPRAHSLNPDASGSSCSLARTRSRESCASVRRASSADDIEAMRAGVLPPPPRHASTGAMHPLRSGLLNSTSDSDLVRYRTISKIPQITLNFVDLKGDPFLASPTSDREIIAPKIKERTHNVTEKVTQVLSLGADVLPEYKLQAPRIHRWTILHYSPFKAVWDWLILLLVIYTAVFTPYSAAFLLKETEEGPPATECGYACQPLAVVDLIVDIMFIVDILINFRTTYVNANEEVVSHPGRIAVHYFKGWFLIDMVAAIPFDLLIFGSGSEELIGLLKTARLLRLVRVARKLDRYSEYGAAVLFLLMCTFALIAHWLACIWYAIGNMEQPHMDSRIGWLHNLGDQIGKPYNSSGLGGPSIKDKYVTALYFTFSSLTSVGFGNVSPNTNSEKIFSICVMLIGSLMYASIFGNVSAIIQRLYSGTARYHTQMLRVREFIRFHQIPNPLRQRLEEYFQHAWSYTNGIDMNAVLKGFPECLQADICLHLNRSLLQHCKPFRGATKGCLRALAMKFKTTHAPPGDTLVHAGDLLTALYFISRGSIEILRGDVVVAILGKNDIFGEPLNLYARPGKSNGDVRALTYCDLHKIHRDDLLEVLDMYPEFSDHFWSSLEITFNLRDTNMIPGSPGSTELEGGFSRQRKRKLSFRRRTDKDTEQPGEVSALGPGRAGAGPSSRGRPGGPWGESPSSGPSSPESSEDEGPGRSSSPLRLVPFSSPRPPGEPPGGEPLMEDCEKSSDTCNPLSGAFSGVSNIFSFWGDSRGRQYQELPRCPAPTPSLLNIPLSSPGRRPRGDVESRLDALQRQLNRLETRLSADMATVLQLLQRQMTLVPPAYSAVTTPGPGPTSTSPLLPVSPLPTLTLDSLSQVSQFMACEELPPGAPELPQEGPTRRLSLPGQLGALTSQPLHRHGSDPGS", "conditions": "Potency"}, "[20]": {"target": "T2, Ubiquitin-conjugating enzyme E2 N (Homo sapiens, UniProt P61088)", "T2 sequence (P61088 whole entry)": "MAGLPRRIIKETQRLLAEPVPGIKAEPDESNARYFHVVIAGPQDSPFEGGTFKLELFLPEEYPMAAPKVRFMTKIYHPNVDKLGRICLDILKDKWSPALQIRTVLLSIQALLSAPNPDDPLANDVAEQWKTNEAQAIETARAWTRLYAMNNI", "format": "functional"}, "Albumin": {"target": "Albumin (Bos taurus, UniProt P02769)", "sequence (P02769 whole entry)": "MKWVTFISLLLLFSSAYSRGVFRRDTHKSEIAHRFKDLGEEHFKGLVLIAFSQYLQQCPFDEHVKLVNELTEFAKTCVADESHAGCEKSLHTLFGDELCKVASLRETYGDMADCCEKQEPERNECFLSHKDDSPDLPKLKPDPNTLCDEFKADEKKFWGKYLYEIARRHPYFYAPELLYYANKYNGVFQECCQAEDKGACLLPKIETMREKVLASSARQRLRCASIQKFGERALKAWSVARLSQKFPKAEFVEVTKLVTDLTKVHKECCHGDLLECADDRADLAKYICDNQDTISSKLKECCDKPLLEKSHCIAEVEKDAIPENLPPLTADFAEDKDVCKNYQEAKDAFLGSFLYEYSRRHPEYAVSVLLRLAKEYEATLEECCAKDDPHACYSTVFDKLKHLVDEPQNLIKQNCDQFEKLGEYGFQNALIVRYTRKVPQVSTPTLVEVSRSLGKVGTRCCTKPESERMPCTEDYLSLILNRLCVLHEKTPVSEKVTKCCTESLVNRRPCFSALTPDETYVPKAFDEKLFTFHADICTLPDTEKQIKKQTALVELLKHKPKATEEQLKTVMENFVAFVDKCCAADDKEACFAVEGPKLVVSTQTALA", "test": "Counterscreen for inhibitors of T-cell receptor (TCR)-CD3 interaction: Fluorescence-based biochemical high throughput dose response assay to identify inhibitors of T-cell receptor (TCR)-CD3 interaction using a TAMRA-labeled BSA probe.", "format": "functional"}}, "note": "The source made the active and inactive calls."}
{"smiles": "CC(=O)c1cn(CCOc2cc(C)ccc2C)c2ccccc12", "values": [{"measurement": "IC50", "setting": "[1]", "result": "> 80 µM (inactive)"}, {"measurement": "AC50", "setting": "INS1", "result": "3.62 µM (active)"}, {"measurement": "AC50", "setting": "[2]", "result": "2.03 µM (active)"}, {"measurement": "AC50", "setting": "[3]", "result": "1.18 µM (active)"}, {"measurement": "AC50", "setting": "[4]", "result": "2.19 µM (active)"}]}
{"smiles": "O=C1CCNc2ccc(-c3ccccc3)cc21", "values": [{"measurement": "IC50", "setting": "[5]", "result": "> 100 µM (active)"}]}
{"smiles": "COC(=O)c1ccc(NC(=O)CSC2=NCCN2)cc1", "values": [{"measurement": "IC50", "setting": "[5]", "result": "> 100 µM (active)"}]}
{"smiles": "CC1CCCCC1NC(=O)/C(C#N)=C/c1ccccc1F", "note": "(stereo unspecified)", "values": [{"measurement": "AC50", "setting": "[6]", "result": "5.53 µM (active)"}, {"measurement": "AC50", "setting": "[7]", "result": "14.4 µM (active)"}, {"measurement": "CC50", "setting": "[8]", "result": "21.3 µM (active)"}, {"measurement": "AC50", "setting": "[9]", "result": "0.94 µM (active)"}]}
{"smiles": "O=C(Nc1cccc(Br)c1)c1ccc2c(c1)SC1=NS(=O)(=O)CCN12", "values": [{"measurement": "AC50", "setting": "Paired box protein Pax-8", "result": "3.32 µM (active)"}, {"measurement": "IC50", "setting": "[1]", "result": "> 80 µM (inactive)"}]}
{"smiles": "CNC(=O)c1cc(Nc2nnc(-c3ccc(O)cc3)c3ccccc23)ccc1OC", "values": [{"measurement": "AC50", "setting": "[10]", "result": "3.86 µM (active)"}, {"measurement": "IC50", "setting": "[1]", "result": "> 80 µM (inactive)"}]}
{"smiles": "CO[C@H](CN(C)S(=O)(=O)c1ccc(Cl)cc1)[C@H](C)CN([C@@H](C)CO)S(=O)(=O)c1cccc(Cl)c1", "values": [{"measurement": "AC50", "setting": "[11]", "result": "17.6 µM (active)"}, {"measurement": "AC50", "setting": "[12]", "result": "3.66 µM (active)"}, {"measurement": "AC50", "setting": "[13]", "result": "3.31 µM (active)"}]}
{"smiles": "COc1ccc(NC(=O)Nc2ccc3c(c2)CC(=O)N([C@@H](C)CO)C[C@H](C)[C@@H](CN(C)Cc2ccc(C(=O)Nc4ccccc4N)cc2)O3)cc1", "values": [{"measurement": "AC50", "setting": "[14]", "result": "3.65 µM (active)"}]}
{"smiles": "O=C(Nc1nc(-c2ccccn2)cs1)c1ccccc1-n1cnnn1", "values": [{"measurement": "IC50", "setting": "Nonstructural protein 1", "result": "5.44 µM (active)"}, {"measurement": "AC50", "setting": "INS1", "result": "1.3 µM (active)"}, {"measurement": "AC50", "setting": "[2]", "result": "2.75 µM (active)"}, {"measurement": "AC50", "setting": "[7]", "result": "6.96 µM (active)"}, {"measurement": "EC50", "setting": "cells [15]", "result": "10.6 µM (active)"}, {"measurement": "IC50", "setting": "H9c2", "result": "> 79 µM (inactive)"}, {"measurement": "AC50", "setting": "[3]", "result": "1.71 µM (active)"}, {"measurement": "EC50", "setting": "cells [16]", "result": "64.3 µM (active)"}, {"measurement": "AC50", "setting": "[4]", "result": "5.46 µM (active)"}, {"measurement": "EC50", "setting": "[17]", "result": "4.31 µM (active)"}, {"measurement": "EC50", "setting": "[18]", "result": "1.93 µM (active)"}]}
{"smiles": "O=C(Oc1ccccc1)c1ccccc1O", "note": "[PHENYL SALICYLATE]", "values": [{"measurement": "AC50", "setting": "[19]", "result": "50.1 µM (inconclusive)"}]}
{"smiles": "COc1cc(-c2nc3ccc(N4CCN(C)CC4)cc3[nH]2)cc(OC)c1OC", "values": [{"measurement": "IC50", "setting": "[1]", "result": "> 80 µM (inactive)"}, {"measurement": "IC50", "setting": "[20]", "result": "> 20 µM (inactive)"}]}
{"smiles": "COc1ccccc1C(=O)NNC(=O)c1ccc(NC(=O)CC(C)C)cc1", "values": [{"measurement": "IC50", "setting": "Albumin", "result": "> 94.1 µM (inactive)"}]}
{"smiles": "CC1CCN(CC[C@H]2CCCN2S(=O)(=O)c2cccc(O)c2)CC1", "values": [{"measurement": "AC50", "setting": "[19]", "result": "22.4 µM (inconclusive)"}]}
{"smiles": "C[C@@H]1CN([C@H](C)CO)C(=O)Cc2cc(NC(=O)C3CCCCC3)ccc2O[C@@H]1CN(C)Cc1ccc(C(=O)Nc2ccccc2N)cc1", "values": [{"measurement": "AC50", "setting": "[14]", "result": "3.51 µM (active)"}]}
